Measurements reported in patent publication US8633227B2, “Synthesis and novel salt forms of (R)-3-((E)-pyrrolidin-3-yl)vinyl)-5-tetrahydropyran-4-yloxy)pyridine” (priority 2008, dated 2014).

Legend:
Preliminary salt screen = type: physicochemical; conditions: equi-millimolar base and acid, 2-propanol or acetonitrile, alternative solvents
Description: Test tubes (4 mL), provided with magnetic stir bars, were charged with equi-milimolar amounts of (R)-3-((E)-2-(pyrrolidin-3-yl)vinyl)-5-(tetrahydropyran-4-yloxy)pyridine base and the acid of interest (neat) and dissolved with 500 μL of either 2-propanol or acetonitrile with the aid of heat.
If no precipitation occurred, the solvent was evaporated under a nitrogen stream with moderate heating and an alternative solvent was tried. Alternative solvents included acetone, ethyl acetate, isopropyl acetate, absolute ethanol, acetonitrile, hexane, tert-butanol, tert-butyl acetate, and blends thereof.
The use of alcohols was avoided in the case of sulfonic acids.

panel of 65 receptors = test: Multiple receptor screening assay; type: binding; conditions: single concentration of 10 μM
Description: (R)-3-((E)-2-(Pyrrolidin-3-yl)vinyl)-5-(tetrahydropyran-4-yloxy)pyridine or a salt thereof was tested for selectivity against a panel of 65 receptors.

normal rats = test: Novel object recognition (NOR) task; type: in vivo, rat; conditions: for NOR time after dosing with statistically significant effect (out to / up to): 0.004 μmol/kg oral (FIG. 2)
Description: Memory was assessed by using a three-trial novel object recognition test (Luine et al., Pharm. Biochem. Behav. 74, 213-220 (2002)). On the first day (exploratory trial), rats were allowed to explore an open arena (44.5×44.5×30.5 cm) for 6 min. On the second day (acquisition trial), rats were allowed to explore the same arena in the presence of two identical objects (both object A) for 3 min. On the third day (retention or recall trial), performance was evaluated by allowing the same animal to re-explore the arena for 3 min in the presence of two different objects: the familiar object A and a novel object B. An inter-trial interval of 24 h was imposed between the three NOR trials. Recognition memory was assessed by comparing the time spent exploring a novel (object B) versus a familiar (object A) object during the recall trial. Recognition index was assessed for each animal and expressed as a ratio ((time B/time A+time B)×100).
(R)-3-((E)-2-(Pyrrolidin-3-yl)vinyl)-5-(tetrahydropyran-4-yloxy)pyridine or a salt thereof improved long-term visual episodic/declarative memory as assessed by novel object recognition (NOR) task following oral dosing in normal rats. […] In the two “recall only” sessions; subset of animals were orally dosed with water on day 1 (i.e., exploratory session) and day 2 (i.e., acquisition session) and then orally dosed either with 1.1 μmol/kg (R)-3-((E)-2-(pyrrolidin-3-yl)vinyl)-5-(tetrahydropyran-4-yloxy)pyridine or a salt thereof (left panel) or 0.04 μmol/kg (right panel) on day 3 (i.e., recall session). […] In the Figure, the dashed line at 65% denotes subjective criteria for biological cognitive enhancing activity. *P<0.05.
(R)-3-((E)-2-(Pyrrolidin-3-yl)vinyl)-5-(tetrahydropyran-4-yloxy)pyridine or a salt thereof was evaluated for its duration of effect in the NOR task in normal rats. […] In the Figure, the dashed line at 65% denotes subjective criteria for biological cognitive enhancing activity (*P<0.05).

[1] = set-up: species or system human
From the text: Therefore any variation of (R)-3-((E)-2-(pyrrolidin-3-yl)vinyl)-5-(tetrahydropyran-4-yloxy)pyridine or a salt thereof metabolism in human due to CYP polymorphism is expected to be less than 2 fold due to the significant renal clearance and low hepatic clearance.

Molecule	Result of preliminary salt screen (physical form obtained) (Preliminary salt screen)	further results
O=C(O)c1ccc2ccccc2c1O [1-Hydroxy-2-naphthoic (Xinafoic)]	brown gum	
CC(=O)Nc1ccc(C(=O)O)cc1 [4-Acetamidobenzoic]	oil	
O=C(O)c1ccc(O)cc1 [4-Hydroxybenzoic]	tacky gum	
COc1ccc(C(=O)O)cc1 [4-Methoxybenzoic]	Oil	
CC1(C)[C@@H](C(=O)O)CC[C@@]1(C)C(=O)O [(1 R,3S)-(+)-Camphoric]	oil	
CC1(C)[C@@H]2CC[C@@]1(CS(=O)(=O)O)C(=O)C2 [(1 S)-(+)-1 O-Camphorsulfonic]	oil	
C(=C\[C@H]1CCNC1)/c1cncc(OC2CCOCC2)c1.O=C(O)C[C@H](O)C(=O)O [(R)-3-((E)-2-(pyrrolidin-3-yl)vinyl)-5-(tetrahydropyran-4-yloxy)pyridine mono-L-malate]	Crystals	
O=C(O)CCCCC(=O)O [Adipic]	oil	
O=C(O)CC(O)(CC(=O)O)C(=O)O [Citric]	tacky gum	
C(=C\[C@H]1CCNC1)/c1cncc(OC2CCOCC2)c1 [Compound A, (R)-3-((E)-2-(pyrrolidin-3-yl)vinyl)-5-(tetrahydropyran-4-yloxy)pyridine]		Multiple receptor screening assay, receptors hit (panel of 65 receptors): only to neuronal nicotinic receptors; Multiple receptor screening assay, receptors hit (panel of 65 receptors; listed as (R)-3-(2-(pyrrolidin-3-yl)vinyl)-5-((tetrahydro-2H-pyran-4-yl)oxy)pyridine): Only nicotinic; NOR time after dosing with statistically significant effect (out to / up to) (normal rats): ≤ 8 h; NOR time after dosing with statistically significant effect (out to / up to) (normal rats; listed as (R)-3-((E)-2-(pyrrolidin-3-yl)vinyl)-5-(tetrahydropyran-4-yloxy)pyridine): up to 8 h; NOR time after dosing with statistically significant effect (out to / up to) (normal rats; listed as Formula I): ≤ 8 h; NOR doses with statistically significant effect (as low as) (normal rats; FIG. 1): ≥ 0.004 µM/kg; NOR minimum effect dose (MED) level (normal rats; follow-up NOR study, oral, rats): 0.004 µmol/kg; NOR recognition index, recall only sessions (normal rats; single oral administration on day 3, 1.1 μmol/kg or 0.04 μmol/kg): recognition indexes significantly above controls; variation of metabolism due to CYP polymorphism [1]: less than 2 fold; renal clearance contribution to total clearance ([1]; human): more than 50%
O=C[C@H](O)[C@@H](O)[C@H](O)[C@H](O)C(=O)O [D-glucuronic]	brown gum	
Cl [Hydrochloric]	red oil	
O=C(O)/C=C\C(=O)O [Maleic]	Oil	
O=C(O)CC(=O)O [Malonic]	Oil	
CS(=O)(=O)O [Methanesulfonic]	Oil	
O=C(O)CCC(=O)O [Succinic]	red oil	
Cc1ccc(S(=O)(=O)O)cc1.O [p-Toluenesulfonic.H20]	Oil	
Fumaric	oil	
L-Tartaric	Oil	
